In publication PMC10980263, “Cryo-EM structures of the human NaS1 and NaDC1 transporters revealed the elevator transport and allosteric regulation mechanism” (Science Advances, 2024):
Substitutions are numbered along the chain they refer to.

Key:
Assay type in all cases: binding
NaDC1 [1] = target: T1, NaDC1 (Homo sapiens, UniProt Q13183, N476A); experiment: CD thermal melting at […] nm; details: absolute Tm in presence of citrate, not a shift
T1 construct: gene SLC13A2; full length, homodimer; N-terminal FLAG purified from HEK293F (structures, natural variant I550V); GFP and FLAG tagged in HEK293T for currents
T1 sequence (Q13183 1-592 N476A): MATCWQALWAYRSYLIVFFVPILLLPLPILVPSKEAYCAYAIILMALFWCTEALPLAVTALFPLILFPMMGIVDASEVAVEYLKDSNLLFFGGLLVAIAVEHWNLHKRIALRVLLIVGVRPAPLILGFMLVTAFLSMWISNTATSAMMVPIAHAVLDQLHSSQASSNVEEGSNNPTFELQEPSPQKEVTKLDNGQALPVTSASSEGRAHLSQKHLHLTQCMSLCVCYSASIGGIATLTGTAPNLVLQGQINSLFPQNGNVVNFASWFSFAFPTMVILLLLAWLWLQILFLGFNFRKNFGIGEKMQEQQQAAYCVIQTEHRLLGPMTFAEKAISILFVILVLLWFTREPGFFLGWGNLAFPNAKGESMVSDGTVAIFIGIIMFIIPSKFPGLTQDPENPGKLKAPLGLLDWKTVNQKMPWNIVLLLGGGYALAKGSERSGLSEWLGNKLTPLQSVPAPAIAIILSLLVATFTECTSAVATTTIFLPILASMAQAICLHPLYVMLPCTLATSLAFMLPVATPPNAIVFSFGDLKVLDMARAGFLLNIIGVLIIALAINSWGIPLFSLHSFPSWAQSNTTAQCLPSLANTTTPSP

NaDC1 [2] = target: T2, NaDC1 (Homo sapiens, UniProt Q13183, S140A); experiment: CD thermal melting at […] nm; details: absolute Tm in presence of citrate, not a shift
T2 construct: gene SLC13A2; full length, homodimer; N-terminal FLAG purified from HEK293F (structures, natural variant I550V); GFP and FLAG tagged in HEK293T for currents
T2 sequence (Q13183 1-592 S140A): T1 sequence (Q13183 1-592 N476A) with S140A, A476N

NaDC1 [3] = target: T3, NaDC1 (Homo sapiens, UniProt Q13183, I550V); experiment: cryo-EM structure ([…] Å); details: 10 mM sodium citrate; substrate site; Na+ at Na1 and Na2
T3 construct: gene SLC13A2; full length, homodimer; N-terminal FLAG purified from HEK293F (structures, natural variant I550V); GFP and FLAG tagged in HEK293T for currents
T3 sequence (Q13183 1-592 I550V): T1 sequence (Q13183 1-592 N476A) with A476N, I550V

Tm (NaDC1 [1]): 60.5 ± 0.7 °C
Tm (NaDC1 [2]): 57.1 ± 0.7 °C
SMILES: O=C(O)CC(O)(CC(=O)O)C(=O)O [citrate]
cryo-EM structure (2.7 Å) (NaDC1 [3]): we discern two sodium ions and one citrate molecule distinctly situated within a single protomer
